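Five concentrations, 48 hours, 96-well plates. TGI is the concentration that stops growth completely.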

The test system of one assay is M14 melanoma. Kind of assay: NCI tumour cell line growth inhibition, 48 h.
In turn, `O=C1OC(CCCN2CCCCC2)(c2ccccc2)CC12CCCC2` (configuration not stated) registered a TGI of 34.3 µM.
For the molecule `COC(=O)[C@@H]1C=C[C@H](OC2OC(COC(C)=O)C(OC(C)=O)C(OC(C)=O)C2OC(C)=O)n2c(=O)n(-c3ccccc3)c(=O)n21` (some centres not stated), the TGI was found to be 5.77 µM.
In turn, `Nc1ccccc1CCN1CCN(CCCc2ccccc2)CC1` returned a TGI of 35.4 µM.
As for `COC(=O)C1=C(OC(=O)/C(=C/c2ccccc2)c2ccc(Cl)cc2Cl)C(C(=O)OC)[C@@]2(O)[C@@H](C(=O)OC)[C@H](C)C[C@@H]1[C@@H]2C(=O)OC` (some centres not stated), the TGI is over 100 µM.
For the molecule `C#CCn1c(=O)c(I)cn(/C(=C/C(=O)OCC)C(=O)OCC)c1=O`, the TGI came to 3.61 µM.
The molecule `CS(=O)(=O)C(C#N)c1nc2ccccc2nc1Cl` (configuration not stated) returned a TGI of over 100 µM.
On the same count and under the same terms, the value for `O=C(/C=C/c1ccc(O)c(O)c1)OCC(OC(=O)/C=C/c1ccc(O)c(O)c1)C(=O)O` (configuration not stated) was over 100 µM; that for `COc1ccc(CC2COc3cc(OC)cc(OC)c3C2=O)cc1` (configuration not stated) was 78.8 µM; that for `O=c1oc2ccccc2c(Nc2ccc3c(c2)Sc2ccccc2O3)c1[N+](=O)[O-]` was over 100 µM.

The test system of a further assay is NCI-H522 lung. Nature of the assay: NCI tumour cell line growth inhibition, 48 h.
As to `COC(=O)C1Cc2cc3c(cc2C1=O)CCC3` (configuration not stated), the TGI is over 100 µM.
In turn, `Cc1c(N2C(=O)C(Cl)C2/C=C/c2ccccc2)c(=O)n(-c2ccccc2)n1C` (configuration not stated) displayed a TGI of 34.5 µM.
The molecule `Cc1ccc2c(ccc(/C=C/c3ccc(O)c4ncccc34)[n+]2C)c1` showed a TGI of 27.1 µM.
The molecule `CCOC(=O)c1ccc(N=C/C=C(\Nc2ccc(C(=O)OCC)cc2)C23CC4CC(CC(C4)C2)C3)cc1` yielded a TGI of over 100 µM.
On the same count and under the same terms, to `O=c1[nH]c2cc(C(F)(F)F)ccc2nc1C(F)(F)F` belongs 99.1 µM; to `Cc1ccc(C(=O)N/N=C(\N=Nc2cccc([N+](=O)[O-])c2)c2ccc(N(CCC#N)CCC#N)cc2C)cc1`, over 100 µM; to `O=C(O)c1c2c(cc3c1CC(Cc1ccccc1)C3=O)CCC2` (configuration not stated), over 100 µM.
The same measure, in the same setting: the value for `OC(CC1CCCCN1)c1ccc2c(c1)oc1ccccc12` (configuration not stated) was over 100 µM; that for `C=CC[C@]1(/C=N/O)CN(S(=O)(=O)CC[Si](C)(C)C)C[C@H]2CC=CC[C@H]21` was 38 µM; that for `O=C1OC(CCCN2CCCCC2)(c2ccccc2)CC12CCCC2` (configuration not stated) was over 100 µM.
For `COC(=O)[C@@H]1C=C[C@H](OC2OC(COC(C)=O)C(OC(C)=O)C(OC(C)=O)C2OC(C)=O)n2c(=O)n(-c3ccccc3)c(=O)n21` (some centres not stated), the TGI was found to be 1.07 µM.
Still for that read-out and setting: the value for `Nc1ccccc1CCN1CCN(CCCc2ccccc2)CC1` was over 100 µM; that for `COC(=O)C1=C(OC(=O)/C(=C/c2ccccc2)c2ccc(Cl)cc2Cl)C(C(=O)OC)[C@@]2(O)[C@@H](C(=O)OC)[C@H](C)C[C@@H]1[C@@H]2C(=O)OC` (some centres not stated) was over 100 µM.
`C#CCn1c(=O)c(I)cn(/C(=C/C(=O)OCC)C(=O)OCC)c1=O` displayed a TGI of 2.37 µM.
`CS(=O)(=O)C(C#N)c1nc2ccccc2nc1Cl` (configuration not stated): the TGI was over 100 µM.
On the same count and under the same terms, the value for `O=C(/C=C/c1ccc(O)c(O)c1)OCC(OC(=O)/C=C/c1ccc(O)c(O)c1)C(=O)O` (configuration not stated) was over 100 µM; that for `COc1ccc(CC2COc3cc(OC)cc(OC)c3C2=O)cc1` (configuration not stated) was 87 µM; that for `O=c1oc2ccccc2c(Nc2ccc3c(c2)Sc2ccccc2O3)c1[N+](=O)[O-]` was 48 µM.

For the next assay, the system named is OVCAR-5 ovarian. Kind of assay: NCI tumour cell line growth inhibition, 48 h.
The molecule `COC(=O)C1Cc2cc3c(cc2C1=O)CCC3` (configuration not stated) returned a TGI of over 100 µM.
The same measure, in the same setting: to `Cc1c(N2C(=O)C(Cl)C2/C=C/c2ccccc2)c(=O)n(-c2ccccc2)n1C` (configuration not stated) belongs over 100 µM.
Still for that read-out and setting: the value for `Cc1ccc2c(ccc(/C=C/c3ccc(O)c4ncccc34)[n+]2C)c1` was 53.3 µM; that for `CCOC(=O)c1ccc(N=C/C=C(\Nc2ccc(C(=O)OCC)cc2)C23CC4CC(CC(C4)C2)C3)cc1` was over 100 µM.
The molecule `O=c1[nH]c2cc(C(F)(F)F)ccc2nc1C(F)(F)F` registered a TGI of over 100 µM.
Turning to `Cc1ccc(C(=O)N/N=C(\N=Nc2cccc([N+](=O)[O-])c2)c2ccc(N(CCC#N)CCC#N)cc2C)cc1`, the TGI is over 100 µM.
`O=C(O)c1c2c(cc3c1CC(Cc1ccccc1)C3=O)CCC2` (configuration not stated) returned a TGI of over 100 µM.
The same measure, in the same setting: the value for `OC(CC1CCCCN1)c1ccc2c(c1)oc1ccccc12` (configuration not stated) was over 100 µM; that for `C=CC[C@]1(/C=N/O)CN(S(=O)(=O)CC[Si](C)(C)C)C[C@H]2CC=CC[C@H]21` was 44.2 µM.
For the molecule `O=C1OC(CCCN2CCCCC2)(c2ccccc2)CC12CCCC2` (configuration not stated), the TGI was over 100 µM.
On the same count and under the same terms, to `COC(=O)[C@@H]1C=C[C@H](OC2OC(COC(C)=O)C(OC(C)=O)C(OC(C)=O)C2OC(C)=O)n2c(=O)n(-c3ccccc3)c(=O)n21` (some centres not stated) belongs 12.6 µM; to `Nc1ccccc1CCN1CCN(CCCc2ccccc2)CC1`, over 100 µM.
For the molecule `COC(=O)C1=C(OC(=O)/C(=C/c2ccccc2)c2ccc(Cl)cc2Cl)C(C(=O)OC)[C@@]2(O)[C@@H](C(=O)OC)[C@H](C)C[C@@H]1[C@@H]2C(=O)OC` (some centres not stated), the TGI is over 100 µM.
In turn, `C#CCn1c(=O)c(I)cn(/C(=C/C(=O)OCC)C(=O)OCC)c1=O` registered a TGI of 31.1 µM.
The molecule `CS(=O)(=O)C(C#N)c1nc2ccccc2nc1Cl` (configuration not stated) showed a TGI of over 100 µM.
The same measure, in the same setting: the value for `O=C(/C=C/c1ccc(O)c(O)c1)OCC(OC(=O)/C=C/c1ccc(O)c(O)c1)C(=O)O` (configuration not stated) was over 100 µM; that for `COc1ccc(CC2COc3cc(OC)cc(OC)c3C2=O)cc1` (configuration not stated) was 76.4 µM; that for `O=c1oc2ccccc2c(Nc2ccc3c(c2)Sc2ccccc2O3)c1[N+](=O)[O-]` was over 100 µM.

In the next assay the test system is MDA-MB-231 breast. Kind of assay: NCI tumour cell line growth inhibition, 48 h.
For `COC(=O)C1Cc2cc3c(cc2C1=O)CCC3` (configuration not stated), the TGI is over 100 µM.
For the molecule `Cc1c(N2C(=O)C(Cl)C2/C=C/c2ccccc2)c(=O)n(-c2ccccc2)n1C` (configuration not stated), the TGI is 72.8 µM.
`Cc1ccc2c(ccc(/C=C/c3ccc(O)c4ncccc34)[n+]2C)c1` had a TGI of over 61.8 µM.
Regarding `CCOC(=O)c1ccc(N=C/C=C(\Nc2ccc(C(=O)OCC)cc2)C23CC4CC(CC(C4)C2)C3)cc1`, the TGI was over 100 µM.
The same measure, in the same setting: the value for `O=c1[nH]c2cc(C(F)(F)F)ccc2nc1C(F)(F)F` was over 100 µM.
Same read-out and setting: the value for `Cc1ccc(C(=O)N/N=C(\N=Nc2cccc([N+](=O)[O-])c2)c2ccc(N(CCC#N)CCC#N)cc2C)cc1` was over 79.2 µM; that for `O=C(O)c1c2c(cc3c1CC(Cc1ccccc1)C3=O)CCC2` (configuration not stated) was over 100 µM.
Molecule `OC(CC1CCCCN1)c1ccc2c(c1)oc1ccccc12` (configuration not stated) registered a TGI of over 100 µM.
Molecule `C=CC[C@]1(/C=N/O)CN(S(=O)(=O)CC[Si](C)(C)C)C[C@H]2CC=CC[C@H]21` displayed a TGI of 44.2 µM.
Molecule `O=C1OC(CCCN2CCCCC2)(c2ccccc2)CC12CCCC2` (configuration not stated) returned a TGI of over 100 µM.
In the case of `COC(=O)[C@@H]1C=C[C@H](OC2OC(COC(C)=O)C(OC(C)=O)C(OC(C)=O)C2OC(C)=O)n2c(=O)n(-c3ccccc3)c(=O)n21` (some centres not stated), the TGI turned out to be 8.42 µM.
Take `Nc1ccccc1CCN1CCN(CCCc2ccccc2)CC1`: the TGI was over 100 µM.
As for `COC(=O)C1=C(OC(=O)/C(=C/c2ccccc2)c2ccc(Cl)cc2Cl)C(C(=O)OC)[C@@]2(O)[C@@H](C(=O)OC)[C@H](C)C[C@@H]1[C@@H]2C(=O)OC` (some centres not stated), the TGI is over 100 µM.
As to `C#CCn1c(=O)c(I)cn(/C(=C/C(=O)OCC)C(=O)OCC)c1=O`, the TGI amounted to 29.5 µM.
Regarding `CS(=O)(=O)C(C#N)c1nc2ccccc2nc1Cl` (configuration not stated), the TGI is over 100 µM.
In turn, `O=C(/C=C/c1ccc(O)c(O)c1)OCC(OC(=O)/C=C/c1ccc(O)c(O)c1)C(=O)O` (configuration not stated) yielded a TGI of over 100 µM.
On the same count and under the same terms, to `COc1ccc(CC2COc3cc(OC)cc(OC)c3C2=O)cc1` (configuration not stated) belongs over 100 µM; to `O=c1oc2ccccc2c(Nc2ccc3c(c2)Sc2ccccc2O3)c1[N+](=O)[O-]`, 47.9 µM.

For the next assay, the system named is U251 CNS. Kind of assay: NCI tumour cell line growth inhibition, 48 h.
Regarding `COC(=O)C1Cc2cc3c(cc2C1=O)CCC3` (configuration not stated), the TGI is over 100 µM.
`Cc1c(N2C(=O)C(Cl)C2/C=C/c2ccccc2)c(=O)n(-c2ccccc2)n1C` (configuration not stated) gave a TGI of 21.1 µM.
With `Cc1ccc2c(ccc(/C=C/c3ccc(O)c4ncccc34)[n+]2C)c1`, the TGI stood at 26.8 µM.
The molecule `CCOC(=O)c1ccc(N=C/C=C(\Nc2ccc(C(=O)OCC)cc2)C23CC4CC(CC(C4)C2)C3)cc1` showed a TGI of over 100 µM.
